Assay results: patent US5567624A, “Carbazine dyes and derivatives for pH measurement” (Utah Medical Products, Inc., priority 1995, dated 1996)

Experiments:
Type in all cases: physicochemical
[1] = Absorbance and fluorescence emission spectra of acid and base forms of the dyes; details: Table, footnote c
Method: Certain properties of the carbazine dyes of Examples 1-7 were determined. Spectral data were obtained either with a Hewlett Packard Model 8452A Diode Array Spectrophotometer or a Perkin Elmer Model LS 50B Luminescence Spectrometer. All of the dyes are similar in their absorbance and emission spectra, with only slight differences in peak locations, ratios of absorbance of acid to absorbance of base, and pKa s. The unmodified dyes show large separation between absorbance peaks for acid and base forms. Typically, the acid form has a peak absorbance at about 480 nm, and the base form has a peak absorbance at about 660 nm. Fluorescence emission of the base form has a well-defined single peak at approximately 690 nm.

[2] = pKa of the dyes in aqueous solution, derived from the absorbance spectra
Text: The pKa values, i.e. the approximate pH values of an aqueous solution of the dye where the acid and base forms of the dye are present in equal concentrations, were derived from the absorbance spectra and are listed in the Table below. As mentioned above, indicator dyes are generally most sensitive to pH changes near their pKa s.

[3] = Fluorescence rating / quantum yield in aqueous solution; details: for Fluorescence: relative scale of 1 to 10 where 10 is best, excitation at maximum absorbance wavelength, constant concentration and pH
Text: The fluorescence ratings shown in the Table are based on the maximum fluorescence obtainable from an aqueous carbazine dye solution with excitation at the maximum absorbance wavelength for the particular dye, but with concentrations and pH constant between all dyes. […] Quantum yields of the acid forms of the dyes appears as high as the base forms. The carbazine dye of Example 4, sold commercially as "CARBAZINE 720" (Exciton, Inc., Dayton, Ohio), has a quantum yield of approximately 50% in aqueous solution containing base.

SMILES	Absorbance ratio of acid/base [1]	pKa [2]	Fluorescence [3]	quantum yield ([3]; aqueous solution containing base)
O=C1C=CC2(C=C1)C1=CC(=O)C=CC1=Nc1ccc(O)cc12 [Example 1, 7-hydroxyspiro[acridine-9,1'-cyclohexa-2',5'-diene]-2(9H),4'-dione]	0.426	6.5	2	
CC1=CC(=O)C(C)=C(C)C12C1=CC(=O)C=CC1=Nc1ccc(O)cc12 (stereo not shown) [Example 3]	0.380	6.5	10	
CC1=CC(=O)C=C(C)C12C1=CC(=O)C=CC1=Nc1ccc(O)cc12 [Example 2]	0.391	6.5	7	
CC1=C(C)C2(C3=CC(=O)C=CC3=Nc3ccc(O)cc32)C(C)=C(C)C1=O [Example 4, 7-hydroxy-2',3',5',6'-tetramethylspiro[acridine-9,1'-cyclohexa-2', 5'-diene]-2(9H), 4'-dione]	0.388	6.5	10	approximately 50%

Now from value to molecule:

Absorbance ratio of acid/base [1]	pKa [2]	Fluorescence [3]	quantum yield ([3]; aqueous solution containing base)	SMILES
0.324	7.2	6		CC(C)(C)C1=CC2(C=CC1=O)C1=CC(=O)C=CC1=Nc1ccc(O)cc12 (stereo not shown) [Example 7]
0.377	6.4	7		CC1=CC(=O)C=C(C(C)C)C12C1=CC(=O)C=CC1=Nc1ccc(O)cc12 (stereo not shown) [Example 6]
0.387	6.7	8		O=C1C=CC2=Nc3ccc(O)cc3C3(C=CC(=O)C4=C3CCCC4)C2=C1 (stereo not shown) [Example 5]
